In patent US8987250B2 (Gilead Sciences, Inc., priority 2012, dated 2015) one finds EC50 data, which are given here for 26 compounds.

Read-outs that look alike come from different tables or passages of the source.

The subject of this assay is HIV-IIIb. Description: Test A: Antiviral Assay in MT4 Cells. Type of assay: cell-based. As to conditions: Table 2, MT-4 cells infected with HIV-IIIb, 5 days of incubation, CellTiter-Glo, read-out: EC50. The essentials:
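Read-out: CellTiter-Glo chemiluminescence after 5-day incubation at 37 °C. Compounds tested as 3-fold serial dilutions (10 concentrations, quadruplicate) in RPMI 1640 with 10% FBS, on MT-4 cells pre-infected at 37 °C with HIV-IIIb at 0.004 m.o.i.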

[1] abbreviates: Human immunodeficiency virus 1, IIIB, MT4, 120 h.

As for `Cc1cc2nc(-c3ccnc(-c4ccc5c(=O)n(C)n(C)c5c4)c3)sc2c(-c2ccc(Cl)cc2)c1[C@H](OC(C)(C)C)C(=O)O` [Compound 188, (S)-2-tert-butoxy-2-(7-(4-chlorophenyl)-2-(2-(1,2-dimethyl-3-oxo-2,3-dihydro-1H-indazol-6-yl)pyridin-4-yl)-5-methylbenzo[d]thiazol-6-yl)acetic acid], the EC50 under setting [1] was determined as 12 nM.
Take `Cc1cc2nc(-c3ccnc(-n4ncc5ccccc54)c3)sc2c(-c2ccc(Cl)cc2)c1[C@H](OC(C)(C)C)C(=O)O` [Compound 189, (S)-2-(2-(2-(1H-indazol-1-yl)pyridin-4-yl)-7-(4-chlorophenyl)-5-methylbenzo[d]thiazol-6-yl)-2-tert-butoxy acetic acid]: under setting [1], the EC50 amounted to 249 nM.
In the case of `Cc1cc2nc(-c3ccnc(-c4nn(C)c5ccccc45)c3)sc2c(-c2ccc(Cl)cc2)c1[C@H](OC(C)(C)C)C(=O)O` [Compound 190, (S)-2-tert-butoxy-2-(7-(4-chlorophenyl)-5-methyl-2-(2-(1-methyl-1H-indazol-3-yl)pyridin-4-yl)benzo[d]thiazol-6-yl)acetic acid], the EC50 under setting [1] is 112 nM.
`Cc1cc2nc(-c3ccnc(-c4ccc5c(ccc(=O)n5C)c4)c3)sc2c(-c2ccc(Cl)cc2)c1[C@H](OC(C)(C)C)C(=O)O` [Compound 191, (S)-2-tert-butoxy-2-(7-(4-chlorophenyl)-5-methyl-2-(2-(1-methyl-2-oxo-1,2-dihydroquinolin-6-yl)pyridin-4-yl)benzo[d]thiazol-6-yl)acetic acid]: the EC50 under setting [1] turned out to be 10 nM.
The same measure, in the same setting: the value for `CNc1ccc2cc(-c3cc(-c4nc5cc(C)c([C@H](OC(C)(C)C)C(=O)O)c(-c6ccc(Cl)cc6)c5s4)ccn3)ccc2n1` [Compound 192, (S)-2-tert-butoxy-2-(7-(4-chlorophenyl)-5-methyl-2-(2-(2-(methylamino)quinolin-6-yl)pyridin-4-yl)benzo[d]thiazol-6-yl)acetic acid] was 12 nM; that for `Cc1cc2nc(-c3ccnc(-c4ccc5nc(N)ccc5c4)c3)sc2c(-c2ccc(Cl)cc2)c1[C@H](OC(C)(C)C)C(=O)O` [Compound 193, (S)-2-(2-(2-(2-aminoquinolin-6-yl)pyridin-4-yl)-7-(4-chlorophenyl)-5-methylbenzo[d]thiazol-6-yl)-2-tert-butoxyacetic acid] was 9 nM; that for `Cc1cc2nc(-c3ccc4c(=O)n(C)n(C)c4c3)sc2c(-c2ccc(Cl)cc2)c1[C@H](OC(C)(C)C)C(=O)O` [Compound 194, (S)-2-tert-butoxy-2-(7-(4-chlorophenyl)-2-(1,2-dimethyl-3-oxo-2,3-dihydro-1H-indazol-6-yl)-5-methylbenzo[d]thiazol-6-yl)acetic acid] was 21 nM.
Still for that read-out and setting: the value for `Cc1cc2nc(-n3ccc4ccncc4c3=O)sc2c(-c2ccc(Cl)cc2)c1[C@H](OC(C)(C)C)C(=O)O` [Compound 195, (S)-2-tert-butoxy-2-(7-(4-chlorophenyl)-5-methyl-2-(1-oxo-2,7-naphthyridin-2(1H)-yl)benzo[d]thiazol-6-yl)acetic acid] was 11 nM; that for `Cc1cc2nc(-c3ccnc(-c4cnc5c(c4)cc(C)n5C)c3)sc2c(-c2ccc(Cl)cc2)c1[C@H](OC(C)(C)C)C(=O)O` [Compound 196, (S)-2-tert-butoxy-2-(7-(4-chlorophenyl)-2-(2-(1,2-dimethyl-1H-pyrrolo[2,3-b]pyridin-5-yl)pyridine-4-yl)-5-methylbenzo[d]thiazol-6-yl)acetic acid] was 33 nM; that for `Cc1cc2nc(-c3cnc4c(c3)cc(C)n4C)sc2c(-c2ccc(Cl)cc2)c1[C@H](OC(C)(C)C)C(=O)O` [Compound 197, (S)-2-tert-butoxy-2-(7-(4-chlorophenyl)-2-(1,2-dimethyl-1H-pyrrolo[2,3-b]pyridin-5-yl)-5-methylbenzo[d]thiazol-6-yl)acetic acid] was 12 nM.
Still for that read-out and setting: the value for `Cc1cc2nc(-c3cnc4c(c3)c(C)cn4C)sc2c(-c2ccc(Cl)cc2)c1[C@H](OC(C)(C)C)C(=O)O` [Compound 198, (S)-2-tert-butoxy-2-(7-(4-chlorophenyl)-2-(1,3-dimethyl-1H-pyrrolo[2,3-b]pyridin-5-yl)-5-methylbenzo[d]thiazol-6-yl)acetic acid] was 39 nM.
With `Cc1cc2nc(-c3ccnc(-c4cnc5c(c4)c(C)cn5C)c3)sc2c(-c2ccc(Cl)cc2)c1[C@H](OC(C)(C)C)C(=O)O` [Compound 199, (S)-2-tert-butoxy-2-(7-(4-chlorophenyl)-2-(2-(1,3-dimethyl-1H-pyrrolo[2,3-b]pyridin-5-yl)pyridine-4-yl)-5-methylbenzo[d]thiazol-6-yl)acetic acid], the EC50 was found to be 95 nM.
For `Cc1cc2nc(-c3ccc4nc(C)n([C@H]5CCN(C)C5)c4c3)sc2c(-c2ccc(Cl)cc2)c1[C@H](OC(C)(C)C)C(=O)O` [Compound 200, (S)-2-tert-butoxy-2-(7-(4-chlorophenyl)-5-methyl-2-(2-methyl-1-((S)-1-methylpyrrolidin-3-yl)-1H-benzo[d]imidazol-6-yl)benzo[d]thiazol-6-yl)acetic acid], the EC50 under setting [1] was determined as 14 nM.
The same measure, in the same setting: the value for `Cc1cc2nc(-c3cnnc(-c4ccc5c(cnn5C)c4)c3)sc2c(-c2ccc(Cl)cc2)c1[C@H](OC(C)(C)C)C(=O)O` [Compound 201, (S)-2-tert-butoxy-2-(7-(4-chlorophenyl)-5-methyl-2-(6-(1-methyl-1H-indazol-5-yl)pyridazin-4-yl)benzo[d]thiazol-6-yl)acetic acid] was 7 nM; that for `COc1ccc(-c2nccc(-c3nc4cc(C)c([C@H](OC(C)(C)C)C(=O)O)c(-c5ccc(Cl)cc5)c4s3)n2)cc1OC` [Compound 203, (S)-2-tert-butoxy-2-(7-(4-chlorophenyl)-2-(2-(3,4-dimethoxyphenyl)pyrimidin-4-yl)-5-methylbenzo[d]thiazol-6-yl)acetic acid] was 12 nM; that for `Cc1cc2nc(-c3ccc(-c4cnn(C)c4C)cc3)sc2c(-c2ccc(Cl)cc2)c1[C@H](OC(C)(C)C)C(=O)O` [Compound 204, (S)-2-tert-butoxy-2-(7-(4-chlorophenyl)-2-(4-(1,5-dimethyl-1H-pyrazol-4-yl)phenyl)-5-methylbenzo[d]thiazol-6-yl)acetic acid] was 155 nM.
For `Cc1cc2nc(-c3ccnc(C4CCN(C)CC4)n3)sc2c(-c2ccc(Cl)cc2)c1[C@H](OC(C)(C)C)C(=O)O` [Compound 205, (S)-2-tert-butoxy-2-(7-(4-chlorophenyl)-5-methyl-2-(2-(1-methylpiperidin-4-yl)pyrimidin-4-yl)benzo[d]thiazol-6-yl)acetic acid], under setting [1], the EC50 worked out at 18 nM.
Turning to `Cc1cc2nc(N3CCc4ncccc4C3)sc2c(-c2ccc(Cl)cc2)c1[C@H](OC(C)(C)C)C(=O)O` [Compound 207, (S)-2-tert-butoxy-2-(7-(4-chlorophenyl)-2-(7,8-dihydro-1,6-naphthyridin-6(5H)-yl)-5-methylbenzo[d]thiazol-6-yl)acetic acid], the EC50 under setting [1] was determined as 19 nM.
`Cc1cc2nc(N3CCc4ccccc4C3)sc2c(-c2ccc(Cl)cc2)c1[C@H](OC(C)(C)C)C(=O)O` [Compound 208, (S)-2-tert-butoxy-2-(7-(4-chlorophenyl)-2-(3,4-dihydroisoquinolin-2(1H)-yl)-5-methylbenzo[d]thiazol-6-yl)acetic acid]: under setting [1], the half-maximal effective concentration (EC50) is 62 nM.
As to `Cc1cc2nc(-c3ccc4c(C)nn(C)c4c3)sc2c(-c2ccc(Cl)cc2)c1[C@H](OC(C)(C)C)C(=O)O` [Compound 209, (S)-2-tert-butoxy-2-(7-(4-chlorophenyl)-2-(1,3-dimethyl-1H-indazol-6-yl)-5-methylbenzo[d]thiazol-6-yl)acetic acid], the 50% effective concentration (EC50) under setting [1] is 16 nM.
On the same count and under the same terms, next, `Cc1cc2nc(-c3ccc4c(c3)nnn4C)sc2c(-c2ccc(Cl)cc2)c1[C@H](OC(C)(C)C)C(=O)O` [Compound 210, (S)-2-tert-butoxy-2-(7-(4-chlorophenyl)-5-methyl-2-(1-methyl-1H-benzo[d][1,2,3]triazol-5-yl)benzo[d]thiazol-6-yl)acetic acid]: 6 nM.
For the compound `Cc1cc2nc(-c3ccc4c(c3)c(-c3ccncc3)nn4C)sc2c(-c2ccc(Cl)cc2)c1[C@H](OC(C)(C)C)C(=O)O` [Compound 213, (S)-2-tert-butoxy-2-(7-(4-chlorophenyl)-5-methyl-2-(1-methyl-3-(pyridin-4-yl)-1H-indazol-5-yl)benzo[d]thiazol-6-yl)acetic acid], the EC50 under setting [1] was determined as 4 nM.
As for `Cc1cc2nc(-c3ccc4c(c3)c(-c3ccccn3)nn4C)sc2c(-c2ccc(Cl)cc2)c1[C@H](OC(C)(C)C)C(=O)O` [Compound 214, (S)-2-tert-butoxy-2-(7-(4-chlorophenyl)-5-methyl-2-(1-methyl-3-(pyridin-2-yl)-1H-indazol-5-yl)benzo[d]thiazol-6-yl)acetic acid], the EC50 under setting [1] stood at 17 nM.
The same measure, in the same setting: next, `Cc1cc2nc(-c3ccnc(-c4cc(C)c5c(cnn5C)c4)c3)sc2c(-c2ccc(Cl)cc2)c1[C@H](OC(C)(C)C)C(=O)O` [Compound 215, (S)-2-tert-butoxy-2-(7-(4-chlorophenyl)-2-(2-(1,7-dimethyl-1H-indazol-5-yl)pyridin-4-yl)-5-methylbenzo[d]thiazol-6-yl)acetic acid]: 27 nM; `Cc1cc2nc(-c3ccnc(-c4cc(C)c5nn(C)cc5c4)c3)sc2c(-c2ccc(Cl)cc2)c1[C@H](OC(C)(C)C)C(=O)O` [Compound 216, (S)-2-tert-butoxy-2-(7-(4-chlorophenyl)-2-(2-(2,7-dimethyl-2H-indazol-5-yl)pyridin-4-yl)-5-methylbenzo[d]thiazol-6-yl)acetic acid]: 15 nM.
In the case of `Cc1cc2nc(-c3ccc4c(c3)nc(C)n4C)sc2c(-c2ccc(Cl)cc2)c1[C@H](OC(C)(C)C)C(=O)O` [Compound 217, (S)-2-tert-butoxy-2-(7-(4-chlorophenyl)-2-(1,2-dimethyl-1H-benzo[d]imidazol-5-yl)-5-methylbenzo[d]thiazol-6-yl)acetic acid], the EC50 under setting [1] came out at 7 nM.
